{"source": "patent US20260109721A1", "about": "“IONIZABLE CATIONIC LIPIDS INCORPORATING SILICON: SYNTHESIS AND LNP FORMULATION” (priority 2023, published 2026)", "key": {"[1]": {"test": "LNP size and size distribution by Dynamic Light Scattering (Method B)", "format": "physicochemical", "conditions": "DLS; for Size (nm): Z-average", "protocol": "• 0.33 ug/uL mRNA solution in DEPC-treated water (RiboPro, Off-The-Shelf mRNA; eGFP with Cap 1) • 0.04 ug/uL mRNA solution in DEPC-treated water (RiboPro, Off-The-Shelf mRNA; eGFP with Cap 1)\nIn 1.5 mL eppendorf: • a) Place 2.9 uL of 0.33 ug/uL mRNA solution into Eppendorf tube • b) Add 1.94 μL of supplied ethanolic solution of tested lipid and immediately mix by working pipette up-and-down several times (work the solution up and down several times before transferring to saturate pipette tip with ethanol vapors) • c) Incubate for 15 minutes. • d) Add 536 μL of MEM. Mix the solution by vortexing. • e) Incubate for 30 minutes.\n• a) Place 45 μL Lipofectamine-50 solution into 1.5 mL sterile Eppendorf tube. • b) Add 315 μL of MEM. Vortex. • c) Incubate 15 min. Size and Size Distribution Measurements with Dynamic Light Scattering • 1. Transfer 100 μL of freshly prepared LNP formulation in DLS micro cuvette. • 2. Place the formulation into Zetasizer pre-heated to 37 C. • 3. Equilibrate the sample for 5 minutes. • 4. Perform the size measurement in triplicate (settings: position and gain auto). • 5. For QC examine correlation curve to have no disturbances. Report Z-average and PDI based on cumulants fit. Transfection Efficiency with GFP mRNA (Method B)"}, "HeLa cells": {"tested_on": "HeLa cells", "test": "Cell viability assessment with MTT assay (Method B)", "format": "cell-based", "conditions": "24 h", "protocol": "The synthesized lipids were tested in term of in vitro transfection efficacy and toxicity on HeLa cells. In order to perform the mentioned biological tests, appropriate LNPs had to be formulated from the synthesized lipids. The formulation technique was different in Method A and B. The particle size, polydispersity index (PDI) and zeta potential of resulting LNPs were determined by means of Dynamic Light Scattering technique (DLS). Prior to biological testing the encapsulation efficiency (EE) of the loaded LNPs was determined by using RiboGreen RNA assay. In case of Method A Luc mRNA while in case of Method B GFP mRNA was transfected into the cells. In parallel with the transfection experiments, toxicity of the investigated LNPs was determined, in case of Method A resazurin assay while in case of Method B MTT assay was used. Additionally, the toxicity of the lipids was investigated on HepG2 cells and IC50 values were determined.\n• MEM (Sigma, cat #M5650-500 mL) • Fetal Bovine Serum, FBS (Sigma, cat #F7524-500 mL) • Thiazolyl Blue Tetrazolium Bromide, MTT (TCI Chemicals, cat #D0801-5G) • Solutions of the formulations (see “Preparation of GFP mRNA loaded LNP” protocol) • Dilutor: 10 mL MEM+0,036 mL ethanol • Phosphate buffered saline, PBS\n• 1. Plate 10,000 HeLa cells per well in 96 well plate. […] Total 60 wells should be seeded. Incubate in MEM+10% FBS at 37° C. in a humidified atmosphere with 5% CO2 for 24 h. • 2. Examine under the microscope. Confluency must be at or nearly 80%. • 3. Gently remove the media (aspirate). Place 50 μL of the following formulations: • a) 6 wells with dilutor—negative control • b) 6 wells with Lipofectamine-50—positive control. • c) 6 wells with Lipofectamine-6—secondary positive control • d) 6 wells per formulations—test samples. • 4. Incubate plate for 1 hours at 37° C. • 5. Add 50 μL of MEM+20% FBS (which will become 10% upon dilution). • 6. […] Measure the absorbance of each well at 570 nm using a microplate reader. Measure the absorbance at a reference wavelength of 650 nm to subtract background absorbance. • 11. […]"}, "[2]": {"test": "Apparent pKa in LNPs by TNS titration", "format": "physicochemical", "conditions": "lipid nanoparticles (LNPs)", "protocol": "In the case of some lipids, the apparent pKa in LNPs was determined by using TNS titration based on the method described: Angew Chem Int Ed Engl. 2012, 51 (34), 8529-8533, doi: 10.1002/anie.201203263)."}}, "data": [{"compound": "CCCCC/C=C\\C/C=C\\CCCCCCCCOC(CCCCCCC/C=C\\C/C=C\\CCCCC)O[Si](C)(C)OCCCCCCN(CCO)CCO", "note": "(stereo not drawn) [Example 48, (23Z,26Z)-13-((8Z,11Z)-heptadeca-8,11-dien-1-yl)-3-(2-hydroxyethyl)-11,11-dimethyl-10,12,14-trioxa-3-aza-11-siladotriaconta-23,26-dien-1-ol]", "values": [{"measurement": "PDI", "setting": "[1]", "result": 0.128}, {"measurement": "Size (nm)", "setting": "[1]", "result": 180, "unit": "nm"}, {"measurement": "Cell Viability %", "setting": "HeLa cells", "result": 51.5, "unit": "%"}, {"measurement": "pKa", "setting": "[2]", "result": 7.73}]}, {"compound": "CCCCC/C=C\\C/C=C\\CCCCCCCCOC(CCCCCCC/C=C\\C/C=C\\CCCCC)O[Si](C)(C)OCCCCCCN(C)CCO", "note": "(stereo not drawn) [Example 56, (23Z,26Z)-13-((8Z,11Z)-heptadeca-8,11-dien-1-yl)-3,11,11-trimethyl-10,12,14-trioxa-3-aza-11-siladotriaconta-23,26-dien-1-ol]", "values": [{"measurement": "PDI", "setting": "[1]", "result": 0.092}, {"measurement": "Size (nm)", "setting": "[1]", "result": 185, "unit": "nm"}, {"measurement": "Cell Viability %", "setting": "HeLa cells", "result": 40.2, "unit": "%"}, {"measurement": "pKa", "setting": "[2]", "result": 7.21}]}, {"compound": "CCCCC/C=C\\C/C=C\\CCCCCCCCOC(CCCCCCC/C=C\\C/C=C\\CCCCC)O[Si](C)(C)OCCCCCCN1CCN(CCO)CC1", "note": "(stereo not drawn) [Example 58, 2-(4-((20Z,23Z)-10-((8Z,11Z)-heptadeca-8,11-dien-1-yl)-8,8-dimethyl-7,9,11-trioxa-8-silanonacosa-20,23-dien-1-yl)piperazin-1-yl)ethan-1-ol]", "values": [{"measurement": "Cell Viability %", "setting": "HeLa cells", "result": 52.1, "unit": "%"}]}]}
